Read-outs that look alike come from different tables or passages of the source.
Legend:
[1] = tested on: Aβ40 in conditioned medium of cells stably expressing Amyloid Precursor Protein (APP); test: In vitro BACE cell-based assay (HEK cell assay), Aβ40 sandwich ELISA; details: Homo sapiens, HEK293
Summary of the method: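 APP-stably expressing cells (40K/well, grown 24 h in DMEM/10% FBS) were treated 24 h with compounds in 10-point dose response starting at 100 μM or 10 μM, 0.1% DMSO final. Secreted Aβ40 was measured by sandwich ELISA (pAb40 capture, biotinylated 6E10 detection, europium time-resolved fluorescence); IC50 from percent inhibition.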

[2] = biological target: Beta Secretase enzyme (BACE1) (Homo sapiens, UniProt P56817); test: In vitro enzymatic BACE FRET assay; format: biochemical; details: read-out: BACE1 FRET assay IC50
Summary of the method: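 BACE1 cleavage of a 50 nM fluorophore/quencher peptide FRET substrate ran for one hour in 0.05 M acetate pH 4.2, 10% DMSO, 100 uM genapol. Tris buffer raised pH to neutrality to stop the reaction before fluorescence was read (excitation 488 nm, […]).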

[3] = biological target: T1, Cathepsin D (Cat D) (Homo sapiens, UniProt P07339); test: In vitro enzymatic Cathepsin D (Cat D) FRET assay; format: biochemical; details: read-out: CatD IC50
T1 construct: Recombinant Cat D was expressed in CHO cells; made in house; host or cells: CHO cells
Summary of the method: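 Recombinant Cat D expressed in CHO cells, used at 9 nM and pre-incubated one hour with serially diluted inhibitor in DMSO. Peptide substrate carries a fluorophore and quencher flanking the cleavage site; reaction stopped with Tris buffer raising pH to neutrality, then fluorescence read.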

Beta Secretase enzyme (BACE1), sequence (P56817 46-501): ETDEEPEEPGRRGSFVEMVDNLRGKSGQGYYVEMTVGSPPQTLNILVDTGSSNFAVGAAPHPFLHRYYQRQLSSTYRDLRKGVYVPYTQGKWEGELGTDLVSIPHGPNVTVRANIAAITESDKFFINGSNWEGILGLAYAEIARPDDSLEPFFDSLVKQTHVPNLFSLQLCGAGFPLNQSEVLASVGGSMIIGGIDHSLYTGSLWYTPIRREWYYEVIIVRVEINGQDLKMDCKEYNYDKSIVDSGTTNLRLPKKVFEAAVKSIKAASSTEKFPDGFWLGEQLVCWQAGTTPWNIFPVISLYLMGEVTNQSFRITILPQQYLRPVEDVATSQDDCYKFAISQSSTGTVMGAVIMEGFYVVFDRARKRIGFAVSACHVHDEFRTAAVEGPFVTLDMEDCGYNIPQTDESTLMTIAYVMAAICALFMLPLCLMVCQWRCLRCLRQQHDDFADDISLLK
T1 sequence (P07339 65-412, species assumed): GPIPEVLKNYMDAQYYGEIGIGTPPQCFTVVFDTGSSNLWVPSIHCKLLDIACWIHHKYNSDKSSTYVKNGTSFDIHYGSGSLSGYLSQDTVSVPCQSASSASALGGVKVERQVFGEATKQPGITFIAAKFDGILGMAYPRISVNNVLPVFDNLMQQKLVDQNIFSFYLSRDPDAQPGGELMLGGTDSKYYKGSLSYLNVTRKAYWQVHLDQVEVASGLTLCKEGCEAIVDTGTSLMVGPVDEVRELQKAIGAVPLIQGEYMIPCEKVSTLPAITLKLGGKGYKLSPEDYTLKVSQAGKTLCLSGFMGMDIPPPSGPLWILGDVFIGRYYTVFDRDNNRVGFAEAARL

| SMILES | IC50 ([1]; average IC50, cell assay) [µM] | IC50 ([2]; average IC50, enzyme assay) [µM] | IC50 [3] [µM] | IC50 ([1]; average IC50, HEK cells) [µM] | IC50 ([2]; average IC50) [µM] |
| --- | --- | --- | --- | --- | --- |
| CC1(C)C(N)=N[C@](C)(c2cc(Nc3nccc4nc(OCC(F)F)cnc34)ccc2F)CS1(=O)=O [Example 444, N-(3-((3R)-5-amino-3,6,6-trimethyl-1,1-dioxido-3,6-dihydro-2H-1,4-thiazin-3-yl)-4-fluorophenyl)-2-(2,2-difluoroethoxy)pyrido[3,4-b]pyrazin-5-amine] | 0.0083 | 0.00454 | 242 |  |  |
| CC#CCOc1cnc2c(Nc3ccc(F)c([C@]4(C)CS(=O)(=O)C(C)(C)C(N)=N4)c3)nccc2n1 [Example 445, N-(3-((3R)-5-amino-3,6,6-trimethyl-1,1-dioxido-3,6-dihydro-2H-1,4-thiazin-3-yl)-4-fluorophenyl)-2-(2-butyn-1-yloxy)pyrido[3,4-b]pyrazin-5-amine] | 0.0002 | 0.00032 | 178 |  |  |
| COc1cnc2c(Nc3ccc(F)c([C@]4(CF)CS(=O)(=O)C(C)(C)C(N)=N4)c3)nccc2n1 [Example 447, N-(3-((3S)-5-amino-3-(fluoromethyl)-6,6-dimethyl-1,1-dioxido-3,6-dihydro-2H-1,4-thiazin-3-yl)-4-fluorophenyl)-2-methoxypyrido[3,4-b]pyrazin-5-amine] | 0.0141 | 0.00088 | 1120 |  |  |
| CC1(C)C(N)=N[C@](CF)(c2cc(Nc3nncc4cc(Br)ccc34)ccc2F)CS1(=O)=O [Example 449, N-(3-((3S)-5-amino-3-(fluoromethyl)-6,6-dimethyl-1,1-dioxido-3,6-dihydro-2H-1,4-thiazin-3-yl)-4-fluorophenyl)-6-bromo-1-phthalazinamine] | 0.159 | 0.0302 | 375 |  |  |
| CC1(C)C(N)=N[C@](C)(c2cc(NC(=O)c3ccc(Cl)cn3)c[nH]c2=O)CS1(=O)=O [Example 452, N-(5-((3R)-5-amino-3,6,6-trimethyl-1,1-dioxido-3,6-dihydro-2H-1,4-thiazin-3-yl)-6-oxo-1,6-dihydro-3-pyridinyl)-5-chloro-2-pyridinecarboxamide] | 0.0159 | 0.00704 | 1870 |  |  |
| Cc1cc(OC(F)F)cnc1C(=O)Nc1cnc(F)c([C@]2(C)CS(=O)(=O)C3(CC3)C(N)=N2)c1 [Example 454, N-(5-((6R)-8-amino-6-methyl-4,4-dioxido-4-thia-7-azaspiro[2.5]oct-7-en-6-yl)-6-fluoro-3-pyridinyl)-5-(difluoromethoxy)-3-methyl-2-pyridinecarboxamide] |  |  | 106 | 0.0039 | 0.0031 |
| C[C@@]1(c2cc(Br)cnc2F)CS(=O)(=O)C2(CC2)C(N)=N1 [Example 455, (6R)-6-(5-bromo-2-fluoro-3-pyridinyl)-6-methyl-4-thia-7-azaspiro[2.5]oct-7-en-8-amine 4,4-dioxide] |  |  | 100 | > 15.6 | 12.5 |

Continued by falling IC50 [3], values first:

| IC50 ([1]; average IC50, cell assay) [µM] | IC50 ([2]; average IC50, enzyme assay) [µM] | IC50 [3] [µM] | SMILES | IC50 ([1]; average IC50, HEK cells) [µM] | IC50 ([2]; average IC50) [µM] |
| --- | --- | --- | --- | --- | --- |
| 0.0006 | 0.00068 | 104 | CC1(C)C(N)=N[C@](C)(c2cc(Nc3nncc4cc(Br)cnc34)ccc2F)CS1(=O)=O [Example 451, N-(3-((3R)-5-amino-3,6,6-trimethyl-1,1-dioxido-3,6-dihydro-2H-1,4-thiazin-3-yl)-4-fluorophenyl)-3-bromopyrido[2,3-d]pyridazin-8-amine] |  |  |
| 0.0285 | 0.00037 | 58.4 | CC1(C)C(N)=N[C@](CF)(c2cc(Nc3nccc4cc(Cl)cnc34)ccc2F)CS1(=O)=O [Example 448, N-(3-((3S)-5-amino-3-(fluoromethyl)-6,6-dimethyl-1,1-dioxido-3,6-dihydro-2H-1,4-thiazin-3-yl)-4-fluorophenyl)-3-chloro-1,7-naphthyridin-8-amine] |  |  |
| 0.263 | 0.0022 | 13.9 | CC1(C)C(N)=N[C@](C)(c2cc(Nc3cc(Cl)cc4cc(Cl)cnc34)ccc2F)CS1(=O)=O [Example 446, N-(3-((3R)-5-amino-3,6,6-trimethyl-1,1-dioxido-3,6-dihydro-2H-1,4-thiazin-3-yl)-4-fluorophenyl)-3,6-dichloro-8-quinolinamine] |  |  |
